# Test system: Min6 cell
# Assay: Insulin secretion response of beta cell line to formula I compounds (insulin ELISA)
# Format: cell-based
# Conditions: rank according to % increase versus control at most effective dose
# Method in brief: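 After compound or vehicle exposure, Min6 cells were held 2 h in glucose-free medium and preincubated 30 min at 37° C in glucose-free KRBH (pH 7.4, 0.1% BSA). They were then incubated 30 min at 37° C in KRBH with varying glucose. Secreted insulin and acid-ethanol-extracted intracellular insulin were measured by ELISA.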
row,Compound,Insulin secretion (Min6 cell) Range 1 to 5
1,"O=C1CCN(Cc2ccccc2)c2ccc(F)cc2CN1C1CC1 [Compound 72, 1-benzyl-5-cyclopropyl-8-fluoro-2,3,5,6-tetrahydrobenzo[b][1,5]diazocin-4(1H)-one]",3 (3: 120-140% of control)
2,"O=C1CCN(CCc2ccccc2)c2ccc(F)cc2CN1C1CC1 [Compound 73, 5-cyclopropyl-8-fluoro-1-phenethyl-2,3,5,6-tetrahydrobenzo[b][1,5]diazocin-4(1H)-one]",4 (4: 140-170% of control)
3,"O=C1CCN(CCCc2ccccc2)c2ccc(F)cc2CN1C1CC1 [Compound 74, 5-cyclopropyl-8-fluoro-1-(3-phenylpropyl)-2,3,5,6-tetrahydrobenzo[b][1,5]diazocin-4(1H)-one]",4 (4: 140-170% of control)
4,"O=C(c1ccc(F)cc1)N1CCC(=O)N(C2CC2)Cc2cccnc21 [Compound 75, 5-cyclopropyl-1-(4-fluorobenzoyl)-2,3,5,6-tetrahydropyrido[2,3-b][1,5]diazocin-4(1H)-one]",4 (4: 140-170% of control)
5,"O=C(Cc1ccc(F)cc1)N1CCC(=O)N(C2CC2)Cc2cccnc21 [Compound 76, 5-cyclopropyl-1-(2-(4-fluorophenyl)acetyl)-2,3,5,6-tetrahydropyrido[2,3-b][1,5]diazocin-4(1H)-one]",5 (5: >170% of control)
6,"O=C(c1cccnc1)N1CCC(=O)N(C2CC2)Cc2cccnc21 [Compound 77, 5-cyclopropyl-1-nicotinoyl-2,3,5,6-tetrahydropyrido[2,3-b][1,5]diazocin-4(1H)-one]",5 (5: >170% of control)
7,"O=C1CCNc2ccc(Cl)cc2CN1C1CC1 [Compound 78, 8-chloro-5-cyclopropyl-2,3,5,6-tetrahydrobenzo[b][1,5]diazocin-4(1H)-one]",3 (3: 120-140% of control)
8,"O=C1CCN(C[C@@H](O)COCc2ccccc2)c2ccc(Cl)cc2CN1C1CC1 [Compound 79, (R)-1-(3-(benzyloxy)-2-hydroxypropyl)-8-chloro-5-cyclopropyl-2,3,5,6-tetrahydrobenzo[b][1,5]diazocin-4(1H)-one]",1 (1: 90-110% of control)
9,"O=C1CCNc2ccc3c(c2CN1C1CC1)OCCO3 [Compound 80, 11-cyclopropyl-2,3,8,9,11,12-hexahydro[1,4]dioxino[2,3-h][1,5]benzodiazocin-10(7H)-one]",3 (3: 120-140% of control)
10,"O=C1CCN(CC(O)COc2ccccc2)c2ccc(Cl)cc2CN1C1CC1 (stereo not drawn) [Compound 81, 8-chloro-5-cyclopropyl-1-(2-hydroxy-3-phenoxypropyl)-2,3,5,6-tetrahydrobenzo[b][1,5]diazocin-4(1H)-one]",1 (1: 90-110% of control)
11,"O=C(CN1CCC(=O)N(C2CC2)Cc2cc(Cl)ccc21)c1ccc(Cl)cc1 [Compound 82, 8-chloro-1-(2-(4-chlorophenyl)-2-oxoethyl)-5-cyclopropyl-2,3,5,6-tetrahydrobenzo[b][1,5]diazocin-4(1H)-one]",1 (1: 90-110% of control)
12,"O=C(CN1CCC(=O)N(C2CC2)Cc2cc(Cl)ccc21)c1cccc(F)c1 [Compound 83, 8-chloro-5-cyclopropyl-1-(2-(3-fluorophenyl)-2-oxoethyl)-2,3,5,6-tetrahydrobenzo[b][1,5]diazocin-4(1H)-one]",1 (1: 90-110% of control)
13,"COc1ccc2c(c1)CN(C1CC1)C(=O)CCN2C(=O)c1ccno1 [Compound 84, 5-cyclopropyl-1-(isoxazole-5-carbonyl)-8-methoxy-2,3,5,6-tetrahydrobenzo[b][1,5]diazocin-4(1H)-one]",1 (1: 90-110% of control)
14,"O=C1CCN(CC(O)c2ccc(Cl)cc2)c2ccc(Cl)cc2CN1C1CC1 (stereo not drawn) [Compound 85, 8-chloro-1-(2-(4-chlorophenyl)-2-hydroxyethyl)-5-cyclopropyl-2,3,5,6-tetrahydrobenzo[b][1,5]diazocin-4(1H)-one]",1 (1: 90-110% of control)
15,"O=C1CCN(CC(O)c2cccc(F)c2)c2ccc(Cl)cc2CN1C1CC1 (stereo not drawn) [Compound 86, 8-chloro-5-cyclopropyl-1-(2-(3-fluorophenyl)-2-hydroxyethyl)-2,3,5,6-tetrahydrobenzo[b][1,5]diazocin-4(1H)-one]",2 (2: 110-120% of control)
16,"O=C1CCN(C[C@@H](O)COCc2ccccc2)c2ccc3c(c2CN1C1CC1)OCCO3 [Compound 88, 7-[(2R)-3-(benzyloxy)-2-hydroxypropyl]-11-cyclopropyl-2,3,8,9,11,12-hexahydro[1,4]dioxino[2,3-h][1,5]benzodiazocin-10(7H)-one]",1 (1: 90-110% of control)
17,"COc1ccc2c(c1)CN(C1CC1)C(=O)CCN2C[C@@H](O)COc1ccc(Cl)cc1 [Compound 89, (R)-1-(3-(4-chlorophenoxy)-2-hydroxypropyl)-5-cyclopropyl-8-methoxy-2,3,5,6-tetrahydrobenzo[b][1,5]diazocin-4(1H)-one]",1 (1: 90-110% of control)
18,"COc1ccc2c(c1)CN(C1CC1)C(=O)CCN2C[C@H](O)COc1ccc(Cl)cc1 [Compound 90, (S)-1-(3-(4-chlorophenoxy)-2-hydroxypropyl)-5-cyclopropyl-8-methoxy-2,3,5,6-tetrahydrobenzo[b][1,5]diazocin-4(1H)-one]",1 (1: 90-110% of control)
19,"O=C(c1ccno1)N1CCC(=O)N(C2CC2)Cc2c1ccc1c2OCCO1 [Compound 91, 11-cyclopropyl-7-(isoxazol-5-ylcarbonyl)-2,3,8,9,11,12-hexahydro[1,4]dioxino[2,3-h][1,5]benzodiazocin-10(7H)-one]",1 (1: 90-110% of control)
20,"O=C(c1ncoc1-c1ccccc1)N1CCC(=O)N(C2CC2)Cc2c1ccc1c2OCCO1 [Compound 92, 11-cyclopropyl-7-[(5-phenyl-1,3-oxazol-4-yl)carbonyl]-2,3,8,9,11,12-hexahydro[1,4]dioxino[2,3-h][1,5]benzodiazocin-10(7H)-one]",1 (1: 90-110% of control)
21,"O=C(CN1CCC(=O)N(C2CC2)Cc2c1ccc1c2OCCO1)c1cccc(F)c1 [Compound 93, 11-cyclopropyl-7-[2-(3-fluorophenyl)-2-oxoethyl]-2,3,8,9,11,12-hexahydro[1,4]dioxino[2,3-h][1,5]benzodiazocin-10(7H)-one]",1 (1: 90-110% of control)
22,"O=C(CN1CCC(=O)N(C2CC2)Cc2c1ccc1c2OCCO1)c1ccc(Cl)cc1 [Compound 94, 7-[2-(4-chlorophenyl)-2-oxoethyl]-11-cyclopropyl-2,3,8,9,11,12-hexahydro[1,4]dioxino[2,3-h][1,5]benzodiazocin-10(7H)-one]",1 (1: 90-110% of control)
23,"O=C1CCN(CC(O)COc2ccccc2)c2ccc3c(c2CN1C1CC1)OCCO3 (stereo not drawn) [Compound 95, 11-cyclopropyl-7-(2-hydroxy-3-phenoxypropyl)-2,3,8,9,11,12-hexahydro[1,4]dioxino[2,3-h][1,5]benzodiazocin-10(7H)-one]",1 (1: 90-110% of control)
24,"O=C1CCN(CC(O)c2cccc(F)c2)c2ccc3c(c2CN1C1CC1)OCCO3 (stereo not drawn) [Compound 96, 11-cyclopropyl-7-[2-(3-fluorophenyl)-2-hydroxyethyl]-2,3,8,9,11,12-hexahydro[1,4]dioxino[2,3-h][1,5]benzodiazocin-10(7H)-one]",3 (3: 120-140% of control)
